Assay results published in patent EP4806900A2, “RAS INHIBITORS” (Revolution Medicines, Inc., priority 2019, dated 2021).
“And” between values parts separate entries of the source, which are not always exact repeats. Identical values can stand only once. Like-named read-outs stand apart in the source and are kept apart here. Values belong to the compound of their own block, whether it stands above or below them.

Experiments:
[1] = test system: NCI-H358 (K-Ras G12C); experiment: CellTiter-Glo cell viability assay, NCI-H358; type: cell-based, human
Summary of the method: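 Compounds dispensed directly onto plated NCI-H358 cells; plates equilibrated to room temperature on day 5 before luminescence read-out. Signal normalized to mean DMSO control (%) and fitted by four-parameter logistic.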

[2] = Homo sapiens, NCI-H358, Table 5, read-out: H358 Cell Viability assay data (K-Ras G12C, IC50)
[3] = Homo sapiens, NCI-H358, read-out: H358 Cell Viability assay data (K-Ras G12C, IC50, uM), Table 5
[4] = Table 5, read-out: H358 Cell Viability assay data (K-Ras G12C, IC50)

Compound: CC(C)[Si](Oc1cc2cc(c1)-c1ccc3[nH]c(I)c(c3c1)CC(C)(C)COC(=O)[C@@H]1CCCN(N1)C(=O)[C@@H](NC(=O)OC(C)(C)C)C2)(C(C)C)C(C)C
ring closure, yield of all isomers (from CC(C)[Si](Oc1cc(C[C@H](NC(=O)OC(C)(C)C)C(=O)N2CCC[C@@H](C(=O)O)N2)cc(-c2ccc3[nH]c(I)c(CC(C)(C)CO)c3c2)c1)(C(C)C)C(C)C, ester bond, EDCI/HOBt/DIPEA, DCM, 22.8 mM, 25.0 °C, 16.0 h): 50%

Compound: CC1(C)COC(=O)[C@@H]2CCCN(N2)C(=O)[C@@H](NC(=O)OC(C)(C)C)Cc2cccc(c2)-c2ccc3[nH]c(I)c(c3c2)C1
ring closure, yield of all isomers (from CC(C)(CO)Cc1c(I)[nH]c2ccc(-c3cccc(C[C@H](NC(=O)OC(C)(C)C)C(=O)N4CCC[C@@H](C(=O)O)N4)c3)cc12, ester bond, EDCI/HOBt/DIPEA, DCM, 12.8 mM, 0.0 °C, 16.0 h): 79.8%

Compound: CCn1c(-c2ccccc2COC)c2c3cc(ccc31)-c1cc(cc([N+](=O)[O-])c1)C[C@H](NC(=O)OC(C)(C)C)C(=O)N1CCC[C@H](N1)C(=O)OCC(C)(C)C2
ring closure, yield of all isomers (from CCn1c(-c2ccccc2COC)c(CC(C)(C)CO)c2cc(-c3cc(C[C@H](NC(=O)OC(C)(C)C)C(=O)N4CCC[C@@H](C(=O)O)N4)cc([N+](=O)[O-])c3)ccc21, ester bond, EDCI/HOBt/DIPEA, DCM, 6.4 mM, 25.0 °C, 16.0 h): 73%

Compound: CCn1c(-c2cccnc2[C@H](C)OC)c2c3cc(ccc31)-c1cc(cc(C(F)F)c1)C[C@H](NC(=O)OC(C)(C)C)C(=O)N1CCC[C@H](N1)C(=O)OCC(C)(C)C2
ring closure, yield of all isomers (from CCn1c(-c2cccnc2[C@H](C)OC)c(CC(C)(C)CO)c2cc(-c3cc(C[C@H](NC(=O)OC(C)(C)C)C(=O)N4CCC[C@@H](C(=O)O)N4)cc(C(F)F)c3)ccc21, ester bond, EDCI/HOBt/DIPEA, DCM, 16.0 h): 51%

Compound: CCn1c(-c2cccnc2[C@H](C)OC)c2c3cc(ccc31)-c1cc(cc(O[Si](C(C)C)(C(C)C)C(C)C)c1)C[C@H](NC(=O)OC(C)(C)C)C(=O)N1CCC[C@H](N1)C(=O)OCC(C)(C)C2
ring closure, yield of all isomers (from CCn1c(-c2cccnc2[C@H](C)OC)c(CC(C)(C)CO)c2cc(-c3cc(C[C@H](NC(=O)OC(C)(C)C)C(=O)N4CCC[C@@H](C(=O)O)N4)cc(O[Si](C(C)C)(C(C)C)C(C)C)c3)ccc21, ester bond, EDCI/HOBt/DIPEA, DCM, 15.3 mM, 25.0 °C, 16.0 h): 42%

Compound: CCn1c(-c2cccnc2[C@H](C)OC)c2c3cc(ccc31)-c1nc(co1)C[C@H](NC(=O)OC(C)(C)C)C(=O)N1CCC[C@H](N1)C(=O)OCC(C)(C)C2
ring closure, yield of all isomers (from CCn1c(-c2cccnc2[C@H](C)OC)c(CC(C)(C)COC(=O)[C@@H]2CCCN(C(=O)[C@H](Cc3coc(Br)n3)NC(=O)OC(C)(C)C)N2)c2cc(B3OC(C)(C)C(C)(C)O3)ccc21, cc_pd bond, XPhos Pd G3, dioxane, […], 70.0 °C, 4.0 h): 56%

Compound: CCn1c(-c2cccnc2[C@H](C)OC)c2c3cc(ccc31)-c1nc(nn1C)C[C@H](NC(=O)OC(C)(C)C)C(=O)N1CCC[C@H](N1)C(=O)OCC(C)(C)C2
ring closure, yield of all isomers (from CCn1c(-c2cccnc2[C@H](C)OC)c(CC(C)(C)COC(=O)[C@@H]2CCCN(C(=O)[C@H](Cc3nc(Br)n(C)n3)NC(=O)OC(C)(C)C)N2)c2cc(B3OC(C)(C)C(C)(C)O3)ccc21, cc_pd bond, XPhos Pd G3, dioxane, 71.7 mM, 75.0 °C, 3.0 h): 56.8%

Compound: CCn1c(-c2cccnc2[C@H](C)OC)c2c3cc(ccc31)-c1cnc(o1)C[C@H](NC(=O)OC(C)(C)C)C(=O)N1CCC[C@H](N1)C(=O)OCC(C)(C)C2
ring closure, yield of all isomers (from CCn1c(-c2cccnc2[C@H](C)OC)c(CC(C)(C)CO)c2cc(-c3cnc(C[C@H](NC(=O)OC(C)(C)C)C(=O)N4CCC[C@@H](C(=O)O)N4)o3)ccc21, ester bond, EDCI/HOBt, DIPEA, DCM, 13.7 mM, 0.0 °C, 2.0 h): 56.4%

Compound: CCn1c(-c2cccnc2[C@H](C)OC)c2c3cc(ccc31)N1CCC[C@@H](C[C@H](NC(=O)OCc3ccccc3)C(=O)N3CCC[C@H](N3)C(=O)OCC(C)(C)C2)C1
ring closure, yield of all isomers (from CCn1c(-c2cccnc2[C@H](C)OC)c(CC(C)(C)CO)c2cc(N3CCC[C@@H](C[C@H](NC(=O)OCc4ccccc4)C(=O)N4CCC[C@@H](C(=O)O)N4)C3)ccc21, ester bond, EDCI/HOBt/DIPEA, DCM, 36.7 mM, 25.0 °C, 6.0 h): 36%

Compound: CCn1c(-c2cccnc2[C@H](C)OC)c2c3cc(ccc31)N1CCO[C@@H](C[C@H](NC(=O)OCc3ccccc3)C(=O)N3CCC[C@H](N3)C(=O)OCC(C)(C)C2)C1
ring closure, yield of all isomers (from CCn1c(-c2cccnc2[C@H](C)OC)c(CC(C)(C)CO)c2cc(N3CCO[C@@H](C[C@H](NC(=O)OCc4ccccc4)C(=O)N4CCC[C@@H](C(=O)O)N4)C3)ccc21, ester bond, EDCI/HOBt/DIPEA, DCM, 12.75 mM, 25.0 °C, 16.0 h): 66%

Compound: CCn1c(-c2cccnc2[C@H](C)OC)c2c3nc(ccc31)-c1csc(n1)C[C@H](NC(=O)OC(C)(C)C)C(=O)N1CCC[C@H](N1)C(=O)OCC(C)(C)C2
ring closure, yield of all isomers (from CCn1c(-c2cccnc2[C@H](C)OC)c(CC(C)(C)CO)c2nc(-c3csc(C[C@H](NC(=O)OC(C)(C)C)C(=O)N4CCC[C@@H](C(=O)O)N4)n3)ccc21, ester bond, EDCI HCl/HOBt/DIPEA, DCM, 6.4 mM, 25.0 °C, 16.0 h): 43%

IC50 [1, 2]: 0.1 to 1 µM
Compound: C=CC(=O)N1CC[C@H](C(=O)N(C)C(C(=O)N[C@H]2C[C@H]3CN(CCO3)c3ccc4c(c3)c(c(-c3cccnc3[C@H](C)OC)n4CC)CC(C)(C)COC(=O)[C@@H]3CCCN(N3)C2=O)C(C)C)C1 (some centres unmarked) [Compound A507]

Compound: C=CC(=O)N1CC[C@H](C(=O)N(C)[C@H](C(=O)N[C@H]2Cc3cccc(c3)-c3ccc4c(c3)c(c(-c3cc(C5=CCN(C)CC5)cnc3[C@H](C)OC)n4CC)CC(C)(C)COC(=O)[C@@H]3CCCN(N3)C2=O)C(C)C)C1 [Compound A514]
IC50 ([1]; read-out: H358 Cell Viability assay data (K-Ras G12C, IC50), Table 5): 0.1 to 1 µM

IC50 [1, 2]: < 0.01 µM
Compound: CO[C@@H](C)c1ncc(N2CCN(C)CC2)cc1-c1c2c3cc(ccc3n1CC(F)(F)F)-c1cccc(c1)C[C@H](NC(=O)[C@H](C(C)C)N(C)C(=O)C1(F)CCN(C(=O)C#CC(C)(C)N(C)C)CC1)C(=O)N1CCC[C@H](N1)C(=O)OCC(C)(C)C2 [Compound A542, 1-(4-(dimethylamino)-4-methylpent-2-ynoyl)-4-fluoro-N-((2S)-1-(((6^1S,4S)-1^2-(2-((S)-1-methoxyethyl)-5-(4-methylpiperazin-1-yl)pyridin-3-yl)-10,10-dimethyl-5,7-dioxo-1^1-(2,2,2-trifluoroethyl)-6^1,6^2,6^3,6^4,6^5,6^6-hexahydro-1^1H-8-oxa-1(5,3)-indola-6(1,3)-pyridazina-2(1,3)-benzenacycloundecaphane-4-yl)amino)-3-methyl-1-oxobutan-2-yl)-N-methylpiperidine-4-carboxamide]

Compound: CO[C@@H](COC1CN(C(=O)C#CC(C)(C)N(C)C)C1)C(=O)N[C@H]1Cc2cccc(c2)-c2ccc3c(c2)c(c(-c2cccnc2[C@H](C)OC)n3CC(F)(F)F)CC(C)(C)COC(=O)[C@@H]2CCCN(N2)C1=O [Compound A556]
IC50 [1, 3]: < 0.01 µM

Compound: C=CC(=O)N1CCOC2CCN(C(=O)N(C)C(C(=O)NC3Cc4nc(cs4)-c4ccc5c(c4)c(c(-c4cccnc4C(C)OC)n5CC)CC(C)(C)COC(=O)C4CCCN(N4)C3=O)C(C)C)CC21 (centres unmarked) [Compound A596]
IC50 [1, 3]: < 0.01 µM

Compound: C=CC(=O)N1CC[C@H](C(=O)N(C)[C@H](C(=O)N[C@H]2Cc3cc(CF)cc(c3)-c3ccc4c(c3)c(c(-c3cccnc3[C@H](C)OC)n4CC(F)(F)F)CC(C)(C)COC(=O)[C@@H]3CCCN(N3)C2=O)C(C)C)C1 [Compound A659]
IC50 [1, 3]: < 0.01 µM

IC50 [1, 4]: 0.01 to 0.1 µM
Compound: CCn1c(-c2cccnc2C(C)OC)c2c3cc(ccc31)-c1cccc(c1)C[C@H](NC(=O)[C@H](C(C)C)N(C)C(=O)N1CCC13CN(C(=O)C#CC(C)(C)N(C)C)C3)C(=O)N1CCC[C@H](N1)C(=O)OCC(C)(C)C2 (some centres unmarked) [Compound A717]

IC50 [1, 4]: 0.1 to 1 µM
Compound: C=CC(=O)N1CC[C@H](C(=O)N(C)[C@H](C(=O)N[C@H]2Cc3cc(O)cc(c3)-c3ccc4c(c3)c(c(-c3ccc(CN5CC[C@@H](O)C5)cc3)n4CC)CC(C)(C)COC(=O)[C@@H]3CCCN(N3)C2=O)C(C)C)C1 [Examples A1]

IC50 [1, 4]: 0.01 to 0.1 µM
Compound: C=CC(=O)N1CC[C@H](C(=O)N(C)[C@H](C(=O)N[C@H]2Cc3cc(O)cc(c3)-c3ccc4c(c3)c(c(-c3ccc(CN5CCCC5)cc3)n4CC)CC(C)(C)COC(=O)[C@@H]3CCCN(N3)C2=O)C(C)C)C1 [Examples A10]

IC50 [1, 4]: < 0.01 µM
Compound: (2R)-2-(((1-(4-(dimethylamino)-4-methylpent-2-ynoyl)azetidin-3-yl)oxy)methyl)-N-((6^3S,4S)-1^1-ethyl-1^2-(2-((S)-1-methoxyethyl)pyridin-3-yl)-10,10-dimethyl-5,7-dioxo-6^1,6^2,6^3,6^4,6^5,6^6-hexahydro-1^1H-8-oxa-1(5,3)-indola-6(1,3)-pyridazina-2(1,3)-benzenacycloundecaphane-4-yl)-3-methylbutanamide [Compound A316]

IC50 [1, 4]: < 0.01 µM and 0.01 to 0.1 µM
Compound: (2S)-N-[(7S,13S)-21-ethyl-20-[2-(methoxymethyl)pyridin-3-yl]-17,17-dimethyl-8,14-dioxo-15-oxa-4-thia-9,21,27,28-tetraazapentacyclo[17.5.2.1^2,^5.1^9,^13.0^22,^26]octacosa-1(25),2,5(28),19,22(26),23-hexaen-7-yl]-3-methyl-2-{N-methyl-1-[(3S)-1-(prop-2-enoyl)pyrrolidin-3-yl]formamido}butanamide [Compound A194]

IC50 [1, 4]: 0.01 to 0.1 µM
Compound: (2S)-N-[(8S,14S,20P)-22-ethyl-21-{4-[(1S)-1-methoxyethyl]pyridin-3-yl}-18,18-dimethyl-9,15-dioxo-16-oxa-10,22,28-triazapentacyclo[18.5.2.1^2,^6.1^10,^14.0^23,^27]nonacosa-1(26),2,4,6(29),20,23(27),24-heptaen-8-yl]-3-methyl-2-{N-methyl-1-[(3S)-1-(prop-2-enoyl)pyrrolidin-3-yl]formamido}butanamide [Compound A115]
